Measurements published in patent publication US5663186A, “Treatment of atherosclerosis with angiotensin II receptor blocking imidazoles” (Merck & Co., Inc., priority 1995, dated 1997).
Structures can show the parent of a compound that is named as a salt.

What was measured:
[1] = system: AII; conditions: cited from earlier work
[2] = system: dogs; conditions: cited from earlier work
[3] = system: conscious dogs; assay: Hypotensive effects and inhibition of AII pressor response before and after furosemide in conscious dogs; type: in vivo, dog
[4] = system: Renal Hypertensives Rats; assay: Antihypertensive effects in renal hypertensive rats (left renal artery ligation); type: in vivo, rat
Protocol: This procedure increases blood pressure by increasing renin production with consequent elevation of AII levels. Compounds are administered orally at 100 mg/kg and/or intravenously via a cannula in the jugular vein at 10 mg/kg. Arterial blood pressure is continuously measured directly through a carotid artery cannula and recorded using a pressure transducer and a polygraph. Blood pressure levels after treatment are compared to pretreatment levels to determine the antihypertensive effects of the compounds (See Table 1).
Compound listed in Table 2 was tested in the same manner as described for Table 1, except that in the test for antihypertensive effects in renal hypertensive rats, the compounds were administered orally at 30 mg/kg and intravenously at 3 mg/kg.

For `CNCC(=O)N[C@@H](CCCN=C(N)N)C(=O)N[C@H](C(=O)N[C@@H](Cc1ccc(O)cc1)C(=O)N[C@H](C(=O)N[C@@H](Cc1cnc[nH]1)C(=O)N1CCC[C@H]1C(=O)N[C@@H](C)C(=O)O)C(C)C)C(C)C` [Saralasin, [Sar^1, Ala^8] AII], the “lowering of arterial pressure” value ([1]; mammals and man, when the (elevated) pressure is dependent on circulating AII) is given as “lower arterial pressure in mammals and man”, the oral effectiveness ([1]; oral doses) is given as “oral doses being ineffective” and the “duration of pharmacological effects” value ([1]; parenteral administration) is given as “relatively short-lasting”. The “antagonism of the actions of AII” value ([1]; pithed rats) was “one of the most potent competitive antagonists of the actions of AII”, the “agonistic (pressor) effects” value ([1]; when the pressure is not sustained by AII) was “generally elicits pressor effects when the pressure is not sustained by AII” and the “effect on renal vasoconstrictor effect of indomethacin and meclofenamate” value ([2]; dogs) was “inhibit the renal vasoconstrictor effect of indomethacin and meclofenamate”.
In the case of `C[C@H](CS)C(=O)N1CCC[C@H]1C(=O)O` [captopril], the “effect on renal vasoconstrictor effect of indomethacin” value ([2]; dogs with non-hypotensive hemorrhage) is listed as “reverse the renal vasoconstrictor effect of indomethacin”.
For `NS(=O)(=O)c1cc(C(=O)O)c(NCc2ccco2)cc1Cl` [furosemide, reference compound], the “Plasma renin activity (PRA)” value ([3]; dogs (three), furosemide 10 mg/kg im at 18 and 2 hours before, PRA four days earlier 1.5±0.5) was 19.9±7.2 ng AI/ml/hr.
With `CCCCc1nc(Cl)c(CO)n1Cc1ccc(-c2ccccc2-c2nnn[nH]2)cc1` [2-butyl-4-chloro-1-[2'-(1H-tetrazol-5-yl)biphenyl-4-yl)methyl]-5-hydroxymethylimidazole sodium salt] the “inhibition of pressor response to AII after furosemide” value ([3]; furosemide-treated dogs, cumulative iv) was “inhibited the pressor response to AII at the two higher doses”, the “decrease in blood pressure after furosemide” value ([3]; furosemide-treated dogs, cumulative iv 0.3 to 3 mg/kg) was “significant decrease in blood pressure in a dose-dependent manner” and the blood pressure lowering ([3]; normotensive conscious dogs (n=4), cumulative iv 0.3 to 3 mg/kg, before furosemide) was “did not lower blood pressure”. For the same molecule, the “inhibition of pressor response to AII” value ([3]; normotensive conscious dogs, cumulative iv 0.3 to 3 mg/kg, AII 0.1 μg/kg iv, 10 min post dose, before furosemide) was “effective in inhibiting the pressor response to AII”.
For `CCCCc1nc(Cl)c(C(=O)O)n1Cc1ccc(-c2ccccc2-c2nnn[nH]2)cc1` [Compound 2, 2-n-butyl-4-chloro-1-[(2'-(tetrazol-5-yl)-1,1'-biphenyl-4-yl)-methyl]-1H-imidazole-5-carboxylic acid], the “Antihypertensive Effects in Renal Hypertensives Rats, Intravenous Activity” value ([4]; intravenous, 3.0 mg/kg or less) was “+ (Significant decrease in blood pressure at 3.0 mg/kg or less)” and the “Antihypertensive Effects in Renal Hypertensives Rats, Oral Activity” value ([4]; oral, 30 mg/kg or less) was “+ (Significant decrease in blood pressure at 30 mg/kg or less)”.
